{"source": "patent US9364448B2", "about": "“Nitisinone for treatment of oculocutaneous/ocular albinism and for increasing pigmentation” (The United States of America, as represented by the …, priority 2010, dated 2016)", "key": {"[1]": {"settings": "affected individuals, oral dosing; cited from earlier work"}, "[2]": {"system": "C57BL/6J-Tyr^c-h/c-h mice (OCA1b model)", "assay": "Plasma tyrosine in NTBC-treated Tyr^c-h/c-h (Himalayan) mice", "assay_type": "in vivo, mouse", "procedure": "(§1) Drug Dosing and Monitoring.\nPlasma tyrosine was assayed from retro-orbital blood taken from mice at 1 week, and 4 weeks into treatment. Because the volume of blood that could be obtained from non-terminal bleeds was small, the plasma from 2-3 mice was pooled to make a single measurement. Plasma samples were frozen immediately after collection on dry ice. Samples ready for assay were gently thawed, diluted with an equal volume of loading buffer (0.2 M lithium citrate, pH 2.2), and filtered using Vivaspin 500 (3000 Da molecular weight cut-off, Sartorius Stedman Biotech, Goettingen, Germany) spun in a fixed angle centrifuge at about 14000×g for 60 minutes at a temperature of about 16-20° C. The supernatant was collected and tyrosine was quantitated on a Biochrom 30 […] (Biochrom, Ltd., Cambridge, UK) using the manufacturer's specifications.\n(§2) Using the same protocol as described above, baseline plasma tyrosine, coat color (gross and microscopic), anterior segment pigment, and posterior segment pigment was documented for each mouse prior to initiating experiments. […] These treated mice were compared to an age- and gender-matched cohort of C57BL/6J-Tyr^c-h/c-h mice over the same time period. Corneal irritation due to NTBC treatment was monitored daily. At the start of treatment, an area of hair was plucked/shaved from each mouse's back, which has the effect of stimulating new hair growth and possibly new pigment deposition in the hair shaft. At the end of four weeks' time, plasma tyrosine concentrations were assessed in both treated and control animals."}, "Tyr^c-h/c-h pups": {"system": "Tyr^c-h/c-h pups", "assay": "Prenatal NTBC treatment of pregnant Tyr^c-h/c-h females, pup examination", "procedure": "Drug Dosing and Monitoring. Ten C57BL/6J Tyr^c-2J/c-2J and ten C57BL/6Tyr^c-h/c-h mice, 3-4 months of age were designated for treatment with NTBC (Swedish Orphan Drug, Stockholm, Sweden). An equal number of age-matched controls of each genotype designated to receive vehicle treatment. NTBC was dissolved in 2 M NaOH and brought to neutral pH before administration to mice. Coat color, iris transillumination and fundus appearance were photodocumented prior to treatment. Because pigment deposition in hair is stimulated with new hair growth, a section of each mouse's coat was shaved prior to the beginning of the experiment. Drug or vehicle was given every other day via oral gavages, at a dosage of about 4 mg/kg, in a volume of about 0.2-0.3 ml. […] Coat color, iris transillumination and fundus appearance were photodocumented at the end of 1 month of treatment or vehicle dosing. For prenatal treatment experiments, pregnancy was determined by a maternal weight gain of >2 g over 7-9 days, after observing a vaginal mucus plug. Treatment with 4 mg/kg NTBC was initiated daily at day 9 or 10 of pregnancy by oral gavage, and given until birth of the litter. At that point, every-other-day oral treatment of the mother was initiated until time of weaning."}, "[3]": {"system": "C57BL/6J-Tyr^c-h/c-h mice (OCA1b model)", "assay": "Coat and ocular pigmentation, clinical examination and electron microscopy, Tyr^c-h/c-h mice", "assay_type": "in vivo, mouse", "procedure": "Animal Husbandry and Clinical Examination. C57BL/6J mice (Stock #000664), C57BL/6JTyr^c-2J/c-2J mice (Stock #000058, MGI ID#1855985), and C57BL/6Tyr^c-h/c-h (Stock #000104, MGI ID#1855979) were obtained from the Jackson Laboratory (Bar Harbor, Me.). Mice were housed according to the institutional Animal Review Board standards with a 14 hour light/10 hour dark cycle. These studies conformed to the principles for laboratory animal research outlined by the Animal Welfare Act (NIH/HHS) and the ARVO Statement for the Use of Animals in Ophthalmic and Vision Research and were approved by the Institutional Animal Care and Use Committee of the National Eye Institute. Clinical examination and imaging of the anterior segment of mice were performed on gently-restrained, awake mice using a Haag-Streit BQ slit lamp and Imaging Module IM900® software (Haag-Streit, Inc., Mason, Ohio). Clinical examination of the posterior segment was performed on gently restrained, awake mice after dilation with one drop of 1% tropicamide (Alcon Laboratories, Inc., Fort Worth, Tex.) using an indirect ophthalmoscope (Keeler, Windsor, Berkshire, UK) with a 90D condensing lens (Volk, Mentor, Ohio). Fundus images were obtained on mice sedated with intraperitoneally injected […] diluted in normal saline. Images were obtained using a Nikon D.90 digital SLR camera with a Nikon 85 mm f/2.8D micro AF-S ED lens mounted to a custom-made aluminum stand, using a 5 cm long Hopkins rigid otoscope coupled to a Xenon Nova light source (175 watt) and fiberoptic cable (Karl Storz, Tuttlingen, Germany). Mice were euthanized with carbon dioxide according to institutional guidelines.\nas §1, §2\nAssessment of the effect treatment and the end of the experimental time period commences with photodocumentation of coat color, anterior segment pigment and posterior segment pigment of each mouse. The mice were sacrificed using standard CO2 euthanasia protocol. One eye from each mouse was submitted for light microscopy, while the other is prepared for electron microscopy. Liver and kidney tissues were collected and processed for light microscopy histology, to insure no pathology is associated with treatment. Additional blood samples were taken and frozen at the time of euthanasia, for possible future studies. Hair shafts in plucked and non-plucked areas were examined and photographed under light microscopy. Melanosome number and size was quantified in the retinal pigmented epithelial cells (RPE) and choroid of the posterior pole of both treated and untreated mice, in a masked fashion, as previously described above."}, "[4]": {"settings": "Tyr^c-h/c-h mice, dose as in Example 1 (1 mg/kg every other day), one month"}, "[5]": {"settings": "Tyr^c-h/c-h (Himalayan) mice, 4 mg/kg orally every other day, one month"}}, "data": [{"molecule": "O=C1CCCC(=O)C1C(=O)c1ccc(C(F)(F)F)cc1[N+](=O)[O-]", "note": "[NTBC, 2-(-2-nitro-4 trifluoromethylbenzoyl)-1,3 cyclohexanedione]", "values": [{"measurement": "Half-life", "setting": "[1]", "result": "50 to 60", "unit": "h"}, {"measurement": "Plasma tyrosine concentration", "setting": "[2]; Tyr^c-h (OCA1b model), 4 mg/kg q.o.d. oral, after 30 days, n = 4", "result": "305 ± 35 μM (n = 4,"}, {"measurement": "Increase in steady-state plasma tyrosine concentrations", "setting": "[2]; Tyr^c-h/c-h mice, 4 mg/kg orally every other day, vs control", "result": "~4", "unit": "fold"}, {"measurement": "Plasma tyrosine concentrations, treated vs control", "setting": "[2]; [4]", "result": "not statistically significantly different"}, {"measurement": "Fundus appearance of pups, vehicle- vs drug-treated dams", "setting": "Tyr^c-h/c-h pups; Tyr^c-h/c-h, 4 mg/kg", "result": "no significant difference"}, {"measurement": "Congenital malformations or systemic illnesses in pups of treated mothers", "setting": "Tyr^c-h/c-h pups; Tyr^c-h/c-h, 4 mg/kg prenatal treatment", "result": "no obvious congenital malformations or systemic illnesses"}, {"measurement": "Iris pigmentation of pups on clinical examination", "setting": "Tyr^c-h/c-h pups; pups of NTBC-treated Tyr^c-h/c-h mothers, 4 mg/kg, near time of weaning", "result": "significant pigmentation"}, {"measurement": "Coat color of pups", "setting": "Tyr^c-h/c-h pups; pups of NTBC-treated Tyr^c-h/c-h mothers, 4 mg/kg, vs vehicle-treated mothers", "result": "considerably darker"}, {"measurement": "Fundus pigmentation", "setting": "[3]; [5]", "result": "grossly unchanged"}, {"measurement": "Iris pigmentation", "setting": "[3]; [5]", "result": "some increase in iris pigmentation"}, {"measurement": "Coat pigmentation, treated vs control", "setting": "[3]; Tyr^c-h/c-h mice, 4 mg/kg orally every other day, one month, shaved patch", "result": "observable increase in pigmentation"}, {"measurement": "Phenotypic changes", "setting": "[3]; [4]", "result": "no phenotypic changes"}, {"measurement": "RPE and choroidal melanosome pigment content (electron microscopy)", "setting": "[3]; Tyr^c-h/c-h mice, treated vs control, preliminary data, FIG. 3", "result": "significant increase"}]}]}
